According to patent US7608623B2, “Hydroxyamidine and hydroxyguanidine compounds as urokinase inhibitors” (Wilex AG, priority 2003, dated 2009):

Tests used:
[1] = Solubility of WX-671 hydrogen sulfate in water; assay type: physicochemical; conditions: 25° C., calculated for the base
From the text: The purity was ≧98% (area % after HPLC).

[2] = Stability of WX-671 hydrogen sulfate (stirring in water/acetone; storage as solid); assay type: physicochemical
Method: 5 g of hydrogen sulfate were stirred in 25 ml of water/acetone (80/20) for 7 days, filtered and dried at room temperature for 60 h. […] After stirring, no increase in the content of organic contaminations was found (determination by HPLC).
After storage as a solid substance at 90° C. for 1 week, <1.5% organic contaminations were found (determination by HPLC).

BN-472 breast cancer = test: Breast cancer model BN-472, tumor growth and metastasis in the rat (WX-683); assay type: in vivo; conditions: BN-472 rat
From the text: BN-472 breast cancer fragments of approximately 20 mm in diameter were taken from a female donor animal. The tumor was excised, separated from the adhering connective tissue, rinsed with saline, and resuspended in HAM-F12 cell culture medium (Invitrogen BV, Breda, Netherlands), supplemented with 10% fetal calf serum (Hi Clone, Greiner BV, Alphen a/d Rijn, Netherlands). The tumor cortex was sliced into cubes of about 2 mm side length and implanted orthotopically under the mammary fat pad of the 4th right nipple of 7 to 9-weeks old recipient female BN rats. Of the grafted tumors, over 95% became palpable within 3 days, and metastasis to the lungs were detected within 2 to 4 weeks.
Shortly before starting the WX-683 treatment on day 3 after tumor transplantation, all rats were individually weighed and the size of the individual tumor measured as the product of the two largest perpendicular diameters. They were then assorted into groups consisting of 18 rats. The rats were pre-selected such that all treatment groups had similar average body weights and tumor size distributions at the start of the treatment. Control rats received 800 μl vehicle (0.01 N HCl) p.o. WX-683 was dissolved in vehicle at the appropriate concentrations and administered in a volume of 800 μl at dosages of 0.3 and 3 mg/kg by oral gavage once a day. The duration of WX-683 treatment ranged from 24 to 25 days, depending whether the tumor size exceeded the maximum tolerable burden. At the end of the treatment period, the rats were sacrificed, their tumors harvested, separated from the adhering connective tissue and the total tumor weight of every rat was determined. To assess the number of lung metastases, the lungs were fixed in Bouin's solution for at least 24 h. Subsequently the number of lung metastases were determined by counting the yellowish-white macroscopic foci on the lung surface (FIG. 7). This study was approved by the Independent Institutional Animal Care and Use Committee (DEC-Consult), Rotterdam, Netherlands, permit no: Erasmus MC OZP 136-03-01, issued on 01.03.2003.

[3] = system: CA20948 rat pancreatic tumor; test: Pancreatic adenocarcinoma model CA20948; conditions: WX-UK1 0.3 mg/kg intraperitoneal, 3 weeks, vehicle 30.7%
BN472 breast cancer = test: Breast cancer model BN472, tumor growth and metastasizing in rats (WX-671); conditions: WX-UK1 i.p. 1 mg/kg daily, 30 days, BN472 rat mammary tumor model

CCOC(=O)N1CCN(C(=O)[C@H](Cc2cccc(/C(N)=N\O)c2)NS(=O)(=O)c2c(C(C)C)cc(C(C)C)cc2C(C)C)CC1.O=S(=O)(O)O [WX-671 hydrogen sulfate]
solubility in water [1]: 1172.5 µg/mL
increase in content of organic contaminations (HPLC) ([2]; after stirring in water/acetone (80/20) for 7 days): no increase
stability of the salt to dissociation (stoichiometry) ([2]; stirred in water/acetone (80/20) for 7 days): stable to dissociation
organic contaminations (HPLC) ([2]; storage as solid at 90° C. for 1 week): < 1.5%

CCOC(=O)N1CCN(C(=O)[C@H](Cc2cccc(NC(=N)NO)c2)NS(=O)(=O)c2c(C(C)C)cc(C(C)C)cc2C(C)C)CC1 [WX-683, N-α-(2,4,6-triisopropylphenylsulfonyl)-3-hydroxyguanidino-(L)-phenylalanine-4-ethoxycarbonylpiperazide]
reduction of median number of lung metastases (BN-472 breast cancer; oral 0.3 mg/kg/day): 18%
reduction of median number of lung metastases (BN-472 breast cancer; oral 3 mg/kg/day): 54%
reduction of median primary tumor weight (BN-472 breast cancer; oral, highest dosage used (3 mg/kg/day)): 38%

CCOC(=O)N1CCN(C(=O)[C@H](Cc2cccc(C(=N)N)c2)NS(=O)(=O)c2c(C(C)C)cc(C(C)C)cc2C(C)C)CC1.Cl [WX-UK1]
percentage large mets (>2 mm liver lesions of total liver lesions) [3]: 13.4%
reduction of average tumor weights at the end of the treatment compared to the control (BN472 breast cancer): approx. 5%
